Series [1] is described as follows: Piglet study of modified nested SYN-004 formulation with oral amoxicillin. The class given is in vivo, Yorkshire piglets. Conditions: pig serum three hours after oral amoxicillin 40 mg/kg. The procedure:
Formulation 2 (TABLE 17) capsules consisting of FS 30 D-coated SYN-004 pellets within FS 30 D-coated capsules were prepared for testing in normal piglets. For this formulation, size 9H gelatin capsules (small capsules, 2.7 mm diameter, 5 mm length) were filled with 3 pellets of FS 30 D-coated SYN-004 sucrose cores, then coated with FS 30 D. The coated 9H capsule containing the SYN-004 pellets was then inserted into a size 5 gelatin capsule for ease of delivery to the pigs (FIG. 26). Each FS 30 D-coated pellet of SYN-004 contained […] of SYN-004. Therefore, the total SYN-004 dose was 0.5 mg/size 5 gelatin capsule. The anticipated advantage of this nested strategy using the small 9H capsules is that the gelatin capsule will dissolve in the stomach, releasing the small FS 30 D-coated 9H capsule that is protected from stomach acid and is small enough to pass through the gastric pylorus without the need for stomach emptying. […] Amoxicillin levels were similar in animals treated with amoxicillin alone and with amoxicillin plus the SYN-004 (FIG. 27; TABLE 20).

The nature of series [2]: Two arm PK study in dogs: amoxicillin levels in dog serum with or without Formulation 2 (TABLE 17). The class given is in vivo, beagle dogs. The following applies: for Amoxicillin levels in dog serum, 0.00 hr: pre-dose. The procedure: Formulation 2 (TABLE 17) was chosen for evaluation in dogs. A two arm pharmacokinetics (PK) study was performed in three non-naïve male beagle dogs (age 2 years, approximately 12 kg). Animals were fasted overnight prior to the day of dosing in each arm. In Arm 1, the dogs were administered one dose of an amoxicillin suspension (amoxicillin powder, Sandoz, Lot FW1707, reconstituted in apple juice to 400 mg/5 ml) via oral gavage at 80 mg/kg. Animals were returned to their cages post-dose and fed 1.5 hrs after amoxicillin dosing. In Arm 2, dogs were administered an amoxicillin suspension (80 mg/kg, prepared as in Arm 1) via oral gavage. Immediately after the oral amoxicillin was dosed, the animals received one size 4 capsule of Formulation 2 (TABLE 17) containing 10 mg of SYN-004. The capsules were not chewed and were swallowed whole. Capsules were dosed by hand by placing the capsule in the back of the dog's mouth and followed by 6 mL of Mott's 100% apple juice in a syringe. Animals were returned to their cages post-dose and fed 1.5 hrs after amoxicillin dosing. There was a seven day washout period between the two arms. In both arms of the study, blood (approximately 2 mL) was collected for serum PK analysis at pre-dose, and 30 minutes, 1, 2, 3, 4, 6, 8, and 10 hrs post-dose. Serum was collected and immediately frozen at −80° C. Feed was ad-libitum throughout both arms, except during dosing, which was done fasted as described. […] Animals were returned to the colony following the last blood collection.
Serum was analyzed for amoxicillin levels using a validated liquid chromatography (LC) method with tandem mass spectrometry detection (LC/MS/MS). Briefly, the serum samples were extracted using the protein precipitation extraction method and analyzed using reverse phase LC. Amoxicillin and amoxicillin-d4 (internal standard) were detected using tandem MS. The study was performed using Applied Biosystems Triple Quad API 500 LC/MS/MS system with Turbo ion spray interfaces. The data were acquired and analyzed by Applied Biosystems “Analyst” software, version 1.5. The lower limit of quantitation (LLOQ) for amoxicillin was 101.723 ng/ml. The upper limit of quantitation (ULOQ) for amoxicillin was 20344.678 ng/ml. A calibration curve consisting of two control blanks, two zero standards and ten non-zero standards, prepared in naïve dog serum, covering a range of 101.723 to 20344.678 ng/ml, were run with each sample batch. Amoxicillin levels were similar for each animal in Arm 1 and Arm 2 of the study (TABLE 19). The amoxicillin serum levels in Arm 1 and Arm 2 for each dog were plotted separately and the area under the curves was calculated (FIG. 25). The area under the curve for each animal was similar in Arm 1 and Arm 2 of the study. […] Therefore, the strategy to reduce the potential for premature release, release in the small intestine prior to absorption of orally-delivered amoxicillin, by using FS 30 D-coated SYN-004 layered sucrose pellets incorporated inside FS 30 D-coated capsule, or the “nested” strategy, was successful as indicated by the similar amoxicillin blood levels in each dog with and without SYN-004.

The nature of series [3]: in vivo. Conditions: Yorkshire, pig.
Protocol: A study was performed using normal piglets to compare the three, modified-release formulations of SYN-004 as described in Example 2, and the original SYN-004 formulation (Enteric pH 5.5) as described in Example 1, delivered orally with oral amoxicillin, to evaluate the effect on amoxicillin serum levels and protection of the microbiome from amoxicillin-induced dysbiosis (FIG. 20).
A total of 25, two month old Yorkshire piglets, approximately 20 kg each, were used for this study. All 25 animals were treated with oral amoxicillin twice a day for a total of 7 days, in addition, Groups 2-5 received SYN-004 four times a data starting the day before amoxicillin treatment for a total of 9 days (TABLE 7).
On Study Day 0, Groups 2-5 (Pigs 6-25) received one size 0 capsule of one of each of the four SYN-004 formulations, containing 50 mg of SYN-004, orally, four times a day at 7 am, 12 pm, 5 pm, and 10 pm for a total of 9 days. Pigs were fed 3 times a day, after SYN-004 dosing at 7 am, after SYN-004 dosing at 12 pm, and after SYN-004 dosing at 5 pm. Beginning on Study Day 1, all groups, 1-5 (Pigs 1-25), received oral amoxicillin (fruit flavored oral suspension, Sandoz, NDC: 0781-6157-46, Lot #FB0703; 20 mg/kg) twice a day at 7 am and at 5 pm, for a total of 7 days. […]
Amoxicillin levels in the pig serum were quantified using a validated liquid chromatography method with MS/MS detection.
Setting [4] is: Arm 1: amoxicillin 80 mg/kg oral gavage alone.
[5] abbreviates: Arm 2: amoxicillin 80 mg/kg + one capsule Formulation 2 (TABLE 17), 10 mg SYN-004.

SMILES strings stand for the structures. Where “and” joins values, the source holds several entries; their conditions need not be identical. Identical values can stand only once.

Compound `CC1(C)S[C@@H]2[C@H](NC(=O)[C@H](N)c3ccc(O)cc3)C(=O)N2[C@H]1C(=O)O` [Amoxicillin] registered a concentration at 3 h in series [1] (Yorkshire, pig, serum, oral, 40 mg/kg, Amoxicillin Serum Levels (ng/ml) Mean, alone or with SYN-004 0.5 mg, 5 pigs, heading: Amoxicillin Serum Levels Mean) of 182 ng/mL. Also, the “Amoxicillin Serum Levels (ng/ml), individual animal” value in series [1] (alone or with one capsule SYN-004 modified nested formulation (0.5 mg)) was 29647 ng/mL and 6498 ng/mL and 25130 ng/mL and 14936 ng/mL and 14757 ng/mL. Further, in series [2] (setting [4]), the “Amoxicillin levels in dog serum, 0.50 hr” value is 17908.396 ng/mL and 16720.439 ng/mL; the “Amoxicillin levels in dog serum, 0.00 hr” value is listed as “BLQ (BLQ: Below lower limit of quantitation)”. In series [2] (setting [5]), the “Amoxicillin levels in dog serum, 2.00 hr” value was 30317.167 ng/mL and 35935.251 ng/mL; the “Amoxicillin levels in dog serum, 0.00 hr” value was “BLQ (BLQ: Below lower limit of quantitation)”. Further, the concentration at 10 h in series [2] (male, beagle, dog, serum, oral, 80 mg/kg, Arm 1: amoxicillin 80 mg/kg oral gavage alone) was 183 ng/mL. In series [2] (male, beagle, dog, serum, oral, 80 mg/kg, Arm 1: amoxicillin 80 mg/kg oral gavage alone, read-out: Amoxicillin levels in dog serum, 0.50 hr), the concentration at 0.5 h was 12600 ng/mL. In addition, in series [2] (male, beagle, dog, serum, oral, Arm 2: amoxicillin 80 mg/kg + one capsule Formulation 2 (TABLE 17), 10 mg SYN-004), the concentration at 2 h amounted to 18700 ng/mL. Besides, in series [2] (serum amoxicillin, each animal), the “area under the curve, Arm 1 versus Arm 2” value is given as “similar”. The compound also gave a concentration at 3 h in series [3] (Amoxicillin (ng/ml) 3 hours) of 1160 to 2320 ng/mL. This compound also came in with a concentration at 6 h in series [3] (Amoxicillin (ng/ml) 6 hours) of 667 to 1160 ng/mL.
